In article PMC3983352 (Journal of Medicinal Chemistry, 2014):

Tests used:
[1] = system: recombinant HDAC8 wild type; details: acetate inhibition; cited from earlier work
wild-type HDAC1 = wild-type HDAC1 (Homo sapiens, UniProt Q13547); experiment: Acetate inhibition assay; format: biochemical; details: at least three independent trials, standard error
HDAC1 F205Y = HDAC1 F205Y (Homo sapiens, UniProt Q13547, F205Y); experiment: Acetate inhibition assay; format: biochemical
HDAC1 Y24A = HDAC1 Y24A (Homo sapiens, UniProt Q13547, Y24A); experiment: Acetate inhibition assay; format: biochemical
HDAC1 Y23A = HDAC1 Y23A (Homo sapiens, UniProt Q13547, Y23A); experiment: Acetate inhibition assay; format: biochemical
HDAC8 R37A = HDAC8 R37A vs HDAC8 wild type; cited from earlier work
HDAC1 R34A = HDAC1 R34A (Homo sapiens, UniProt Q13547, R34A); experiment: Acetate inhibition assay; format: biochemical
HDAC1 C151A = HDAC1 C151A (Homo sapiens, UniProt Q13547, C151A); experiment: Acetate inhibition assay; format: biochemical
HDAC1 R36A = HDAC1 R36A (Homo sapiens, UniProt Q13547, R36A); experiment: Acetate inhibition assay; format: biochemical
Sequence of HDAC1 R36A (Q13547 whole entry R36A): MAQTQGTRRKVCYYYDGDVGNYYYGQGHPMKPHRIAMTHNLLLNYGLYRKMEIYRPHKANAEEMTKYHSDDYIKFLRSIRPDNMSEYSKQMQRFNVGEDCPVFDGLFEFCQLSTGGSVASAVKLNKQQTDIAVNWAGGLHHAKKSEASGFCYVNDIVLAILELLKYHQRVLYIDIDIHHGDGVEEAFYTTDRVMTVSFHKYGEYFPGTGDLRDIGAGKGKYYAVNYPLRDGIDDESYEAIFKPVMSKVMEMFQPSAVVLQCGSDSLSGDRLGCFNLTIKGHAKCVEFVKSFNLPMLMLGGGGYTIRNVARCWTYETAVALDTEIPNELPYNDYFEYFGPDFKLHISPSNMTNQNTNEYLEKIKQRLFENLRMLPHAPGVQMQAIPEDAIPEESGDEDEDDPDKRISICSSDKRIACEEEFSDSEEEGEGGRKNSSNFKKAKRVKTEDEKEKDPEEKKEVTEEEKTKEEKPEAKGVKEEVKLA

Sequence of HDAC1 Y23A (Q13547 whole entry Y23A): as the sequence (Q13547 whole entry R36A) above, with Y23A, A36R counted along it
Sequence of HDAC1 C151A (Q13547 whole entry C151A): as the sequence (Q13547 whole entry R36A) above, with A36R, C151A counted along it
Sequence of HDAC1 Y24A (Q13547 whole entry Y24A): as the sequence (Q13547 whole entry R36A) above, with Y24A, A36R counted along it
Sequence of HDAC1 R34A (Q13547 whole entry R34A): as the sequence (Q13547 whole entry R36A) above, with R34A, A36R counted along it
Sequence of wild-type HDAC1 (Q13547 whole entry): as the sequence (Q13547 whole entry R36A) above, with A36R counted along it
Sequence of HDAC1 F205Y (Q13547 whole entry F205Y): as the sequence (Q13547 whole entry R36A) above, with A36R, F205Y counted along it

In the case of `CC(=O)[O-].[Na+]` [acetate, sodium acetate], the IC50 [1] is listed as 2.5 mM, the IC50 (wild-type HDAC1) is listed as 7.2 ± 0.54 mM and the IC50 (HDAC1 F205Y) is listed as 8 ± 1.5 mM. The “fold reduction in acetate inhibition compared to the wild type” value (shortened to “fold reduction in acetate inhibition”) (HDAC1 Y24A; HDAC1 Y24A vs wild type) was “roughly 3 fold”, the IC50 (HDAC1 Y24A; acetate inhibition, HDAC1 Y24A) was 19 ± 1.1 mM and the “fold reduction in acetate inhibition” value (HDAC1 Y23A; HDAC1 Y23A vs wild type) was “roughly 3 fold”. For the same molecule, the IC50 (HDAC1 Y23A; acetate inhibition, HDAC1 Y23A) was 21 ± 1.5 mM, the “fold reduction of acetate inhibition compared to wild type” value (HDAC8 R37A) was 160 fold and the “fold reduction in acetate inhibition” value (HDAC1 R34A; HDAC1 R34A vs wild type) was “roughly 3 fold”. For the same molecule, the IC50 (HDAC1 R34A; acetate inhibition, HDAC1 R34A) was 21 ± 1.6 mM, the “fold reduction in acetate inhibition” value (HDAC1 C151A; HDAC1 C151A vs wild type) was “roughly 2 fold” and the IC50 (HDAC1 C151A; acetate inhibition, HDAC1 C151A) was 13 ± 1.1 mM. The “fold reduction in acetate inhibition” value (HDAC1 R36A; HDAC1 R36A vs wild type) was “roughly 2 fold” and the IC50 (HDAC1 R36A; acetate inhibition, HDAC1 R36A) was 16 ± 1.3 mM.
